Read-outs that look alike come from different tables or passages of the source.
How the values were obtained:
[1] = tested on: Escherichia Coli (E. coli, ATCC25922); assay: Anti-microbial rate of finished cotton textiles, FZ/T73023-2006 D.8 shocking method; format: cell-based; settings: Escherichia coli, ATCC25922, finishing liquid 1.0 wt %, read-out: Anti-microbial rate (%) of cotton textiles finished with compound E (1.0 wt %), E. coli
From the text: (§1) Each of the reaction products (i.e., compound E) according to Examples 1-21 was used to prepare an anti-microbial agent (e.g., a finishing liquid), and the anti-microbial effects were different depending on compound E and conditions of use.
(§2) Remarks: 1) in the data of anti-microbial rate in Table 5: Examples 1-9 used a soaking-rolling-drying process to finish cotton fabric, where the bath ratio (i.e., the ratio of the weight of a liquid containing compound E to the weight of the cotton fabric) was 20:1, the residual liquid ratio was 90%, and the drying process was conducted at 85° C. for 30 minutes; Examples 10-18 were prepared by a soaking-high speed spinning-drying method, where the bath ratio was 20:1, the residual liquid ratio was 90%, and the drying process was conducted at 85° C. for 20 min; Examples 19-21 were prepared by a spraying-spinning-drying process with a bath ratio of 30:1, a residual liquid ratio of 85% after drying, and the drying process was conducted at 105° C. for 5 minutes.
(§3) 2) Table 5 data test method: FZ/T73023-2006 anti-microbial textiles D.8 shocking method. In addition, the inhibition zone method (FZ/T73023-2006 anti-microbial textiles—Appendix E—inhibition zone method) was used to test whether the active compound (E) was released from the finished cotton textiles, the inhibition zone test result of the 21 examples and zwitterions were 0 mm, and thus compound E was not released from the finished cotton textiles. The anti-microbial finishing agent used in the comparative experiment was zwitterion with the molecular structure
(§4) 3) The composition of the finishing liquid in Table 5 was: compound E 1.0 wt %, sodium bicarbonate 1.0 wt %, and the rest of the finishing liquid was water.

[2] = tested on: Candida Albicans (C. albicans 10231); assay: as above; format: cell-based; settings: Candida albicans, finishing liquid 1.0 wt %, read-out: Anti-microbial rate (%) of cotton textiles finished with compound E (1.0 wt %), C. albicans
From the text: as §1, §2, §3, §4

[3] = tested on: Staphylococcus Aureus (S. aureus, ATCC 6538); assay: as above; format: cell-based; settings: Staphylococcus aureus, ATCC6538, finishing liquid 1.0 wt %, read-out: Anti-microbial rate (%) of cotton textiles finished with compound E (1.0 wt %), S. aureus
From the text: as §1, §2, §3, §4

[4] = tested on: Escherichia coli (E. coli, ATCC 25922); assay: Anti-microbial performance of finished textiles, shock method (GB/T 20944.3-2007); format: cell-based
Experimental: (§5) (1) A comparison of the anti-microbial effects of textiles soaked with compound E obtained in Example 2 and unsoaked textiles was shown in FIG. 1. The experimental procedure was: The anti-microbial performance of the finishing text was tested by the shock method (GB/T 20944.3-2007). The tested microorganism were Gram-negative Escherichia coli (E. coli, ATCC 25922) and Gram-positive Staphylococcus Aureus (S. Aureus, ATCC 6538). The specific experimental operations are as follows: 1) inoculating and culturing the microorganisms at 37° C. for 14 h; diluting the microbial solution to 10^−5 using a sterilized PBS buffer (pH=7.2) to obtain a diluted microbial solution; 2) taking the same size of blank textiles (e.g., cloth) and textiles (finished using compound E and sterilized) in different 50 mL tubes, adding 5 mL of diluted microbial solution to immerse the textiles, sealing the tubes and putting the tubes on a shaker for shaking the tubes under 37° C. at 190 r/min for 24 h; 3) after 24 hours of cultivation, the tubes were taken out and diluted to 10 times using a PBS solution. 100 μL of the diluted microbial solution was added to the nutrient agar medium, uniformly spread to dryness, placed in an incubator, and cultured at 37° C. for 16 h, and then the plates were taken out, and the number of colonies in each plate was counted. The anti-microbial rate was calculated by the following equation: Anti-microbial rate (%)=[…]. Notes: N1 denotes the number of colonies in the finished cloth; N0 denotes the number of colonies in blank cloth.
(§6) The inhibitory effect of compound E obtained in Example 19 on Escherichia coli and Staphylococcus Aureus at various concentrations was shown in FIGS. 3 to 5. The experimental procedure was: using the enzyme linked immunosorbent assay to determine the minimal inhibitory concentration (MIC) value of the anti-microbial drug, and adding the diluted anti-microbial drug solution to the sterilized 100-well plate, respectively. Specifically, 10 ul of drug solution (i.e., a solution of compound E) was added to the first to eleventh holes at concentrations of 100 μg/ml, 90 μg/ml, 80 μg/ml, 70 μg/ml, 60 μg/ml, 50 μg/ml, 40 μg/ml, 30 μg/ml, 20 μg/ml, 10 μg/ml, 5 μg/ml. The drug solution was not added to the twelfth hole which serves as a control group; the bacterial suspension was diluted by LB broth (0.5 Mcfarland Standard dilution to 1000 times with a bacterial concentration of 105 colony-forming unit (CFU)/ml), and 90 μl of the bacterial suspension was added to each well. […] The change curve of OD600 value for 24 h was measured in a microplate reader (automatic growth-curve machine). […]

[5] = tested on: Staphylococcus Aureus (S. aureus, ATCC 6538); assay: as above; format: cell-based
Experimental: as §5, §6

[6] = tested on: Gram-negative bacteria (E. coli); assay: Anti-microbial performance of finished textiles, live cell counting method; format: cell-based; settings: textiles soaked with compound E (1.0 wt %)
Experimental: (§7) (2) A comparison of the anti-microbial effects of textiles soaked with compound E obtained in Example 11 and unsoaked textiles was shown in FIG. 2. The experimental procedure was as follows: the anti-microbial performance of the finished textiles was tested by the live cell counting method, and the anti-mite activity of the house dust mites was evaluated according to the national standard method (GB/T 24253-2009).

[7] = tested on: fungi (Aspergillus niger); assay: as above; format: cell-based; settings: textiles soaked with compound E (1.0 wt %)
Experimental: as §7

[8] = tested on: Gram-positive bacteria (Staphylococcus aureus); assay: as above; format: cell-based; settings: textiles soaked with compound E (1.0 wt %)
Experimental: as §7

house dust mites = assay: Anti-mite activity of finished textiles (GB/T 24253-2009); format: in vivo
Experimental: as §7

Staphylococcus Aureus = assay: Minimal inhibitory concentration (MIC), OD600 growth curve in microplate reader; format: cell-based; settings: LB broth, OD600 for 24 h, read-out: minimum inhibitory concentration against Staphylococcus Aureus
Experimental: (§8) The inhibitory effect of compound E obtained in Example 19 on Escherichia coli and Staphylococcus Aureus at various concentrations was shown in FIGS. 3 to 5. The experimental procedure was: using the enzyme linked immunosorbent assay to determine the minimal inhibitory concentration (MIC) value of the anti-microbial drug, and adding the diluted anti-microbial drug solution to the sterilized 100-well plate, respectively. Specifically, 10 ul of drug solution (i.e., a solution of compound E) was added to the first to eleventh holes at concentrations of 100 μg/ml, 90 μg/ml, 80 μg/ml, 70 μg/ml, 60 μg/ml, 50 μg/ml, 40 μg/ml, 30 μg/ml, 20 μg/ml, 10 μg/ml, 5 μg/ml. The drug solution was not added to the twelfth hole which serves as a control group; the bacterial suspension was diluted by LB broth (0.5 Mcfarland Standard dilution to 1000 times with a bacterial concentration of 105 colony-forming unit (CFU)/ml), and 90 μl of the bacterial suspension was added to each well. At this time, the drug concentrations of the first to the eleventh holes were 10 μg/ml, 9 μg/ml, 8 μg/ml, 7 μg/ml, and 6 μg/ml, 5 μg/ml, 4 μg/ml, 3 μg/ml, 2 μg/ml, 1 μg/ml, 0.5 μg/ml respectively. The change curve of OD600 value for 24 h was measured in a microplate reader (automatic growth-curve machine). […]

Escherichia coli = assay: as above; format: cell-based; settings: LB broth, OD600 for 24 h, read-out: minimum inhibitory concentration against Escherichia coli
Experimental: as §8

[9] = both finishing liquids 1.0 wt %
[10] = finished cloth, concentration of compound E >0.1%

| MIC (Staphylococcus Aureus) | MIC (Escherichia coli) | Compound | killing at 1 % ([1]; times of washing 0) | killing at 1 % ([1]; times of washing 10) | killing at 1 % ([1]; times of washing 50) | killing at 1 % ([2]; times of washing 0) | killing at 1 % ([2]; times of washing 10) | killing at 1 % ([2]; times of washing 50) | killing at 1 % ([3]; times of washing 0) | killing at 1 % ([3]; times of washing 10) | killing at 1 % ([3]; times of washing 50) | anti-microbial activity of finishing liquid compared with zwitterionic finishing liquid, E. coli [4, 9] | anti-microbial activity of finishing liquid compared with zwitterionic finishing liquid, S. aureus [5, 9] | bacteriostatic rate, E. coli [6] | bacteriostatic rate, Aspergillus niger [7] | bacteriostatic rate, Staphylococcus aureus [8] | acaricidal activity against house dust mites (house dust mites) | anti-microbial rate of the anti-microbial finishing liquid, E. coli [4, 10] | anti-microbial rate of the anti-microbial finishing liquid, S. aureus [5, 10] |
| --- | --- | --- | --- | --- | --- | --- | --- | --- | --- | --- | --- | --- | --- | --- | --- | --- | --- | --- | --- |
| – | – | CCCCCCCC[N+](C)(C)CCOc1nc(Cl)nc(Cl)n1 [Example 1] | 100% | 99.9% | 99.2% | 99.9% | 99.9% | 98.9% | 100% | 99.9% | 99.8% | greater than that of the zwitterionic finishing liquid | greater than that of the zwitterionic finishing liquid | – | – | – | – | – | – |
| – | – | CCCCCCCCCCCCCCCCCC[n+]1ccn(CCOc2nc(Cl)nc(Cl)n2)c1 [Example 11] | 100% | 99.9% | 99.9% | 99.9% | 99.9% | 99.6% | 100% | 99.9% | 99.9% | – | – | over 99.99% | over 99.99% | over 99.99% | good acaricidal activity | – | – |
| 1 µg/mL | 4 µg/mL | Br.CCCCCCCCCC[N+](C)(C)CN(CCOc1nc(Cl)nc(Cl)n1)C[N+](C)(C)CCCCCCCCCC [Example 19] | 100% | 99.9% | 99.7% | 99.9% | 99.9% | 97.9% | 100% | 99.9% | 99.8% | – | – | – | – | – | – | > 99.9% | > 99.9% |

— US12290073B2, “Anti-microbial compound and methods of use” (SHENZHEN UNIVERSITY, priority 2019, dated 2025)
